Measured values as given in patent US20240293351A1, “METHODS OF ADMINISTERING SYNTHETIC TRITERPENOIDS” (REATA PHARMACEUTICALS HOLDINGS, LLC, priority 2020, published 2024).
“And” between values parts separate entries of the source, which are not always exact repeats. Identical values can stand only once. Like-named read-outs stand apart in the source and are kept apart here.

What was measured:
[1] = Pharmacokinetic study 402-C-1102 in patients with type 2 diabetes and stage 3b/4 CKD (24-h urine); assay type: in vivo, human; conditions: 20 mg once daily 56 days
[2] = Drug-drug interaction study: bardoxolone methyl alone and with itraconazole in healthy volunteers; conditions: for AUC extra %, GM / AUC extra %, Mean / CL/F, GM / CL/F, Mean / λz, GM / λz, Mean / AUC(0-t) / AUC(0-inf) / Cmax / half-life / Vd/F / Tmax: plasma; for AUC(0-t) / AUC(0-inf) / Cmax / half-life / Vd/F / Tmax: human; for AUC(0-t): AUC0-t; for AUC(0-inf): AUC0-∞; for Vd/F: Vz/F
[3] = clinical; conditions: human, in vivo, po
[4] = BEACON 24-hour ABPM / 24-hr urine collection sub-study; assay type: in vivo, human
Description: A subset of the BEACON patients consented to additional 24-hour assessments including ambulatory blood pressure monitoring (ABPM) and 24-hour urine collections. An independent Events Adjudication Committee (EAC), blinded to study treatment assignment, evaluated whether renal events, cardiovascular events, and neurological events met the pre-specified definitions of the primary and secondary endpoints. An IDMC, consisting of external clinical experts supported by an independent statistical group, reviewed unblinded safety data throughout the study and made recommendations as appropriate.
A subset of patients consented to additional 24-hr assessments (sub-study) of ambulatory blood pressure monitoring (ABPM) and 24-hr urine collection at selected visits. […] Also of note, reductions in serum magnesium were not associated with renal loss of magnesium.

[5] = ITT N = 1088, adjudicated primary endpoints
[6] = post-hoc ITT, Observed N, randomized 1088
[7] = post-hoc, Age ≤ 75, randomized 786
[8] = post-hoc, BL ACR ≤ 300, eGFR > 20, BNP ≤ 200, randomized 209
[9] = post-hoc, BL ACR ≤ 1000, eGFR > 20, Age ≤ 75, randomized 368
[10] = post-hoc, BL ACR ≤ 1000, randomized 798
[11] = post-hoc, BL BNP ≤ 200, randomized 559
[12] = post-hoc, BL eGFR > 20, randomized 735
[13] = post-hoc, No h/o HF, randomized 922
[14] = Period 1: single oral 10 mg bardoxolone methyl alone, fasted, n = 16
[15] = Period 2: single 10 mg bardoxolone methyl with daily 200 mg itraconazole, n = 15
[16] = bardoxolone methyl alone (Period 1)
[17] = oral, 10 mg, Geom. Mean, Bardoxolone Methyl Alone (A), paired analysis n = 15
[18] = oral, GM, Period 2: single 10 mg bardoxolone methyl with daily 200 mg itraconazole, n = 15
[19] = oral, Geom. Mean, Bardoxolone Methyl + Itraconazole (B), paired analysis n = 15
[20] = oral, Mean, Period 2: single 10 mg bardoxolone methyl with daily 200 mg itraconazole, n = 15
[21] = po, 10 mg, GM, Period 1: single oral 10 mg bardoxolone methyl alone, fasted, n = 16
[22] = po, 10 mg, Mean, Period 1: single oral 10 mg bardoxolone methyl alone, fasted, n = 16

Structure (SMILES): COC(=O)[C@]12CCC(C)(C)C[C@H]1[C@H]1C(=O)C=C3[C@@]4(C)C=C(C#N)C(=O)C(C)(C)[C@@H]4CC[C@@]3(C)[C@]1(C)CC2 [Bardoxolone methyl, methyl-2-cyano-3,12-dioxooleana-1,9-dien-28-oic acid]
- Occurrence of Death (BEACON, ITT, BARD 20 mg (N = 1088), deaths at database lock): 4.0%
- Occurrence of ESRD (BEACON, ITT, BARD 20 mg (N = 1088), events through last date of contact): 4.0%
- Patient's first event: CV death, patients [5]: 26 n
- Patient's first event: Chronic dialysis, patients [5]: 40 n
- Patient's first event: End stage renal disease (ESRD), patients [5]: 43 n
- Patient's first event: Renal death, patients [5]: 2 n
- Patient's first event: Renal transplant, patients [5]: 1 n
- Composite primary efficacy outcome (ESRD or CV death), patients (ITT N = 1088, adjudicated, on or before study termination): 69 n
- SAE Infections and infestations, patients (ITT, All Patients N = 1088): 79
- SAE Infections and infestations, patients (ITT, BL ACR ≤ 300, eGFR > 20, BNP ≤ 200, N = 209): 9
- SAE Infections and infestations, patients (ITT, BL ACR ≤ 1000, eGFR > 20, Age ≤ 75, N = 368): 20
- Treatment-emergent SAE: Infections and infestations, patients (Safety Population N = 1092, 20 mg once daily): 79 n
- Fatal heart failure events (final analysis): three
- Hy's Law cases (human, in vivo): no Hy's Law cases were observed
- Increase in BNP from baseline, Mean±SD (human, in vivo): 225 ± 598 pg/mL
- K^+ Retention (human, in vivo): None
- Mean WK 24 ΔeGFR (human, in vivo): 6.1 and 5.5 and 7.6
- Mean increase in diastolic blood pressure (human, in vivo): 1.4 mmHg
- Mean increase in systolic blood pressure (human, in vivo): 1.9 mmHg
- N of patients with WK 24 BNP change 25% to 100% Increase (human, in vivo): 45
- N of patients with WK 24 BNP change <25% Increase (human, in vivo): 84
- N of patients with WK 24 BNP change ≥100% Increase (human, in vivo): 82
- QTc prolongation (human, in vivo): not associated with QTc prolongation
- SAE Endocrine disorders, patients (human, in vivo): 1
- QTcF interval, change from baseline, 25th quartile (human, in vivo, 24 weeks): -13 ms
- QTcF interval, change from baseline, 75th quartile (human, in vivo, 24 weeks): 10 ms
- QTcF interval, change from baseline, Mean (SD) (human, in vivo, 24 weeks): −0.9 (19.2) msec
- QTcF interval, change from baseline, Range (min, max) (human, in vivo, 24 weeks): −88, 69
- QTcF interval, change from baseline, median (human, in vivo, 24 weeks): -1 ms
- QTcF interval, observed, 25th quartile (human, in vivo, 24 weeks): 407 ms
- QTcF interval, observed, 75th quartile (human, in vivo, 24 weeks): 443 ms
- QTcF interval, observed, Mean (SD) (human, in vivo, 24 weeks): 425.8 (26.5) msec
- QTcF interval, observed, median (human, in vivo, 24 weeks): 425 ms
- All-Cause Death, patients [6]: 44
- ESRD, patients with event [6]: 47
- All-Cause Death, patients [7]: 20
- ESRD, patients with event [7]: 38
- All-Cause Death, patients [8]: 5
- ESRD, patients with event [8]: 1
- All-Cause Death, patients [9]: 11
- ESRD, patients with event [9]: 9
- All-Cause Death, patients [10]: 32
- ESRD, patients with event [10]: 21
- All-Cause Death, patients [11]: 14
- ESRD, patients with event [11]: 12
- All-Cause Death, patients [12]: 27
- ESRD, patients with event [12]: 18
- All-Cause Death, patients [13]: 35
- ESRD, patients with event [13]: 35
- Deaths confirmed as cardiovascular, patients (prior to clinical database lock (Mar. 4, 2013)): 29
- 24-h Urinary Sodium, WK 8 Δ from baseline, mean ([1]; CKD Stage 3b, N = 9): −12 mmol/24 h
- 24-h Urine Volume, WK 8 Δ from baseline, mean ([1]; CKD Stage 3b, N = 9): 355 mL
- 24-h Urinary Sodium, WK 8 Δ from baseline, mean ([1]; CKD Stage 4, N = 6): −89 mmol/24 h
- 24-h Urine Volume, WK 8 Δ from baseline, mean ([1]; CKD Stage 4, N = 6): -610 mL
- Tolerability of concomitant administration with itraconazole ([2]; 10 mg + itraconazole 200 mg): generally safe and well tolerated
- Clearance (GM CL/F) ([2]; 10 mg single dose + itraconazole 200 mg daily): 41.6 L/h
- Clearance (GM CL/F) ([2]; 10 mg single dose, alone): 359 L/h
- Increase in exposure in the presence of itraconazole ([2]; 10 mg single dose, itraconazole 200 mg daily): > 5 fold
- AUC extra %, GM [2, 14]: 5.81%
- AUC extra %, Mean [2, 14]: 6.10%
- CL/F, GM [2, 14]: 359 L/h
- CL/F, Mean [2, 14]: 402 L/h
- λz, GM [2, 14]: 0.0370 h⁻¹
- λz, Mean [2, 14]: 0.0392 h⁻¹
- AUC extra %, GM [2, 15]: 7.64%
- AUC extra %, Mean [2, 15]: 8.47%
- CL/F, GM [2, 15]: 41.6 L/h
- CL/F, Mean [2, 15]: 42.8 L/h
- λz, GM [2, 15]: 0.0074 h⁻¹
- λz, Mean [2, 15]: 0.00762 h⁻¹
- Subjects with a TEAE, n (%) [2, 16]: 3 (18.8%)
- Subjects with study drug-related TEAEs (diarrhea, nausea, headache), n (%) [2, 16]: 1 (6.3%)
- Subjects with a TEAE, n (%) ([2]; concomitant bardoxolone methyl and itraconazole (Period 2)): 1 (6.7%)
- AUC(0-t) [2, 17]: 25.8 ng·h/mL
- AUC(0-inf) [2, 17]: 27.6 ng·h/mL
- Cmax [2, 17]: 2.41 ng/mL
- half-life ([2]; oral, 10 mg, Mean t1/2, 10 mg single dose, alone): 19.8 h
- AUC(0-t) [2, 18]: 220 ng·h/mL
- AUC(0-t) [2, 19]: 220 ng·h/mL
- AUC(0-t) [2, 20]: 226 ng·h/mL
- AUC(0-inf) [2, 18]: 241 ng·h/mL
- AUC(0-inf) [2, 19]: 241 ng·h/mL
- AUC(0-inf) [2, 20]: 248 ng·h/mL
- Cmax [2, 18]: 16.6 ng/mL
- Cmax [2, 19]: 16.6 ng/mL
- Cmax [2, 20]: 17.3 ng/mL
- half-life ([2]; oral, Mean t1/2, 10 mg single dose + itraconazole 200 mg daily): 95.9 h
- Vd/F [2, 18]: 5620 L
- Vd/F [2, 20]: 5900 L
- Tmax [2, 20]: 3.1 h
- Tmax ([2]; oral, Median, Period 2: single 10 mg bardoxolone methyl with daily 200 mg itraconazole, n = 15): 3 h
- half-life ([2]; oral, t½, Mean, Period 2: single 10 mg bardoxolone methyl with daily 200 mg itraconazole, n = 15): 95.9 h
- half-life ([2]; oral, t½, Median, Period 2: single 10 mg bardoxolone methyl with daily 200 mg itraconazole, n = 15): 97.7 h
- AUC(0-t) [2, 21]: 26.1 ng·h/mL
- AUC(0-t) [2, 22]: 29.3 ng·h/mL
- AUC(0-inf) [2, 21]: 27.8 ng·h/mL
- AUC(0-inf) [2, 22]: 31 ng·h/mL
- Cmax [2, 21]: 2.43 ng/mL
- Cmax [2, 22]: 2.58 ng/mL
- Vd/F [2, 21]: 9700 L
- Vd/F [2, 22]: 10200 L
- Tmax [2, 22]: 2.9 h
- Tmax ([2]; po, 10 mg, Median, Period 1: single oral 10 mg bardoxolone methyl alone, fasted, n = 16): 2.5 h
- half-life ([2]; po, 10 mg, t½, Mean, Period 1: single oral 10 mg bardoxolone methyl alone, fasted, n = 16): 19.8 h
- half-life ([2]; po, 10 mg, t½, Median, Period 1: single oral 10 mg bardoxolone methyl alone, fasted, n = 16): 20.3 h
- Changes in laboratory parameters ([2]; whole study): no clinically relevant mean or individual changes in laboratory parameters
- Deaths, SAEs, adverse events leading to discontinuation ([2]; whole study): No subjects died, had an SAE, or had an adverse event that led to discontinuation of study drug
- half-life [3]: 48 to 60 h
- Urinary Magnesium, WK4 Δ from baseline, mean ([4]; n = 40): −0.9 mmol/24 h
- Urinary Magnesium, WK4, mean ([4]; n = 43): 6.0 mmol/24 h
- Urinary Potassium, WK4 Δ from baseline, mean ([4]; n = 57): −7 mmol/24 h
- Urinary Sodium, WK4 Δ from baseline, mean ([4]; n = 57): −27 mmol/24 h
- Urinary Potassium, WK4, mean ([4]; n = 61): 52 mmol/24 h
- Urinary Sodium, WK4, mean ([4]; n = 61): 140 mmol/24 h
- 24-hour Urine Volume, WK4 Δ from baseline, mean ([4]; n = 63): -247 mL
- 24-hour Urine Volume, WK4, mean ([4]; n = 64): 1792 mL
- Serum Magnesium, WK4, mean ([4]; n = 77): 1.53 mEq/L
- Serum Magnesium, WK4 Δ from baseline, mean ([4]; n = 77): −0.21 mEq/L
- Serum Potassium, WK4 Δ from baseline, mean ([4]; n = 77): 0.10 mmol/L
- Serum Sodium, WK4, mean ([4]; n = 77): 140.3 mmol/L
- Serum Sodium, WK4 Δ from baseline, mean ([4]; n = 77): 0.2 mmol/L
- Serum Potassium, WK4, mean ([4]; n = 77, 20 mg once daily): 4.8 mmol/L
